From the METLIN SMRT retention time set (Domingo-Almenara et al. 2019)

Experiment: gradient 5% acetonitrile 3 min, to 50% in 2 min, to 85% in 15 min, held 3 min, 100 µL/min
Conditions: column: Zorbax Extend-C18 2.1 x 50 mm; eluents: water / acetonitrile, 0.1% formic acid
Summary of the method: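 The mobile phases were water and acetonitrile, each with 0.1% formic acid, pumped at 100 μL/min through a Zorbax Extend-C18 column (2.1 × 50 mm, 1.8 μm). Pure standards were injected as mixtures of ~100 molecules and detected by a quadrupole time-of-flight mass spectrometer in positive and negative ionization mode. Retention time came from computationally picked adduct peaks, each inspected by hand.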

O=C(NCc1ccc(F)cc1)c1ccc2c(c1)nc1n2CCN(c2ccccc2)C1=O showed an RP-LC retention time of 760 s.

For COc1ccc(CNC(=O)c2csc(-c3cn(C)c4ncccc34)n2)cc1, the RP-LC retention time was 867 s.

With O=C(Cn1c(=O)c2cc(C3CC3)nn2c2ncccc21)Nc1ccc(F)cc1F the RP-LC retention time was 779 s.

With Cc1ccc(C)c(NC(=O)Cn2nc3cc(-c4ccccc4)nc(C)n3c2=O)c1 the RP-LC retention time was 961 s.

In the case of O=C(C1CCN(S(=O)(=O)c2cc(-c3noc(C4CC4)n3)cs2)CC1)N1CCc2ccccc21, the RP-LC retention time is reported as 1070 s.

For Cc1ccc(CNS(=O)(=O)c2cc(-c3nc(C(C)(C)C)cs3)cs2)cc1, the RP-LC retention time was 1320 s.

COc1ccc(NC(=O)Nc2c(-c3cccc(C)c3)nc3ccccn23)c(OC)c1 showed an RP-LC retention time of 696 s.

For CCC(C)NC(=O)C1CCC(=O)N(c2ccc(OC)cc2)C1c1ccc(OC)c(OC)c1 (centres undefined), the RP-LC retention time was 638 s.

With Clc1cccc(-n2cc(-c3noc(-c4ccc5c(c4)OCO5)n3)nn2)c1 the RP-LC retention time was 1100 s.

In the case of CC(C)NC(=O)c1cc(=O)[nH]c2c(Cl)cccc12, the RP-LC retention time is reported as 737 s.

O=C(Cn1cc(-c2nnc(-c3ccco3)o2)c2ccccc21)N1CCCC1 gave an RP-LC retention time of 724 s.

Compound Cc1cc(C)c2c(N3CCOCC3)nc(C(=O)NCC3CCCCC3)nc2n1 has an RP-LC retention time of 678 s.

O=C(c1ccc(Br)cc1)N1CC2C3CCC(O3)C2C1 (centres undefined) gave an RP-LC retention time of 838 s.

For N#Cc1ccc(NC(=O)Cn2cccc(-c3nc(-c4ccc(F)cc4)no3)c2=O)cc1, the RP-LC retention time was 857 s.

In the case of Cc1cccc(NC(=O)C2CC(=O)N(c3ccc4oc(C)nc4c3)C2)c1 (centres undefined), the RP-LC retention time is reported as 708 s.

O=C(NC1CCc2ccccc21)C1CCN(C(=O)c2ncn3c2COC(c2ccccc2)C3)CC1 (centres undefined) gave an RP-LC retention time of 809 s.

With Cc1ccccc1NS(=O)(=O)c1ccc(-c2c(C)noc2C)cc1 the RP-LC retention time was 924 s.

With COc1ccc(Cl)cc1NC(=O)N1CCCC(c2nnc(-c3ccccc3F)s2)C1 (centres undefined) the RP-LC retention time was 1040 s.

Compound COc1ccccc1C(=O)NC1CCN(c2ccc(C)cc2)C1=O (centres undefined) has an RP-LC retention time of 870 s.

Work on CN(C)C(=O)c1n[nH]c2c1CN(C(=O)c1cccc(Cl)c1)CC2 yielded an RP-LC retention time of 642 s.

In the case of COc1ccc(NC(=O)C2(C)CCCCC(=O)N2)cc1F (centres undefined), the RP-LC retention time is reported as 690 s.

Work on CCN1c2cc(Cl)ccc2C(=O)NC12CCN(C(=O)Nc1ccccc1C)CC2 yielded an RP-LC retention time of 837 s.

COCCN1C(=O)c2ccc(-c3ccco3)n2CC1(C)C(=O)NCc1ccccc1 (centres undefined) showed an RP-LC retention time of 814 s.

With COCCCNC(=O)C1CCCN(c2nccnc2Sc2ccccc2)C1 (centres undefined) the RP-LC retention time was 849 s.

For Cc1ccccc1NC(=O)C1CCN(S(=O)(=O)c2ccc3c(c2)sc(=O)n3C(C)C)CC1, the RP-LC retention time was 951 s.

For CC1CCN(S(=O)(=O)c2cc(C(=O)N3CCN(c4ccccc4F)CC3)n(C)c2)CC1, the RP-LC retention time was 1050 s.

O=C(NC1CC1)C1(CCO)CCN(Cc2ccccc2)C1 (centres undefined) showed an RP-LC retention time of 564 s.

With Cc1nc(-c2ccc3c(c2)n(CC(=O)NC(C)(C)C)c(=O)n3C(C)C)no1 the RP-LC retention time was 810 s.

With N#Cc1cccc(C(=O)Nc2cnn(-c3ncc(N4CCCCC4)cn3)c2)c1 the RP-LC retention time was 847 s.

Cn1cccc1CN(C(=O)CC(c1ccccc1)c1ccccc1)C1CC1 gave an RP-LC retention time of 1080 s.

COc1cc2c(cc1OC)C(C(=O)Nc1ccc(C(C)C)cc1)C(c1cccnc1)N(C)C2=O (centres undefined) gave an RP-LC retention time of 720 s.

CC1=NS(=O)(=O)N(Cc2ccccc2)C=C1C(=O)OCc1ccc(F)c(F)c1 gave an RP-LC retention time of 1100 s.

In the case of Cc1nn(C)c2c(=O)n(CC(=O)N3CCN(c4ccccn4)CC3)ccc12, the RP-LC retention time is reported as 558 s.

COc1cccc(CCC(=O)N2CC3CN(S(=O)(=O)c4ccc(C)cc4)CC(C2)O3)c1 gave an RP-LC retention time of 908 s.

In the case of CSc1cccc(NC(=O)N(C)CC2CCOCC2)c1, the RP-LC retention time is reported as 743 s.

For COc1ccc(NC(=O)N2C[C@@H](F)C[C@H]2C(=O)N2CCCCC2)c(OC)c1, the RP-LC retention time was 687 s.

For O=C(Nc1ccc(-c2cn3ccccc3n2)cc1)c1ccc([N+](=O)[O-])cc1, the RP-LC retention time was 586 s.

In the case of O=C(Nc1cccc(Br)c1)N1CCc2nc[nH]c2C1, the RP-LC retention time is reported as 614 s.

Cc1noc(C2CN(C(=O)Nc3cc(F)ccc3F)CC23CCOCC3)n1 (centres undefined) showed an RP-LC retention time of 733 s.

For Cc1noc(-c2nn(C)c3c2CN(C(=O)C2(c4ccccc4)CC2)CC3)n1, the RP-LC retention time was 757 s.

Work on COc1cc(C(=O)N2CCCN(c3cc(=O)n(C)c(=O)n3C)CC2)cc(OC)c1OC yielded an RP-LC retention time of 624 s.

In the case of O=C(Cn1nc2n(c1=O)CCCC2)Nc1cccc(F)c1, the RP-LC retention time is reported as 638 s.

COC(=O)C1=CN(c2cccc(C#N)c2)c2cc(F)ccc2S1(=O)=O gave an RP-LC retention time of 763 s.

Work on COc1ccc(CNC(=O)Cn2nc3c(N4CCCCCC4)nccn3c2=O)cc1 yielded an RP-LC retention time of 679 s.

Compound Cc1ccc(S(=O)(=O)N2CCCC(Cn3c(C)nc4cccnc43)C2)cc1F (centres undefined) has an RP-LC retention time of 725 s.

With Cc1ccc(-c2nc(Nc3ccc(C)c(Cl)c3)sc2CC(=O)O)cc1 the RP-LC retention time was 1100 s.

For O=C(Cn1cccc1-c1nnc(C2CC2)o1)Nc1ccc(Cl)cc1F, the RP-LC retention time was 908 s.

COCC1CN(C2CCC2)CC12CCN(C(=O)c1sccc1C)CC2 (centres undefined) showed an RP-LC retention time of 597 s.

For COc1cccc(Cn2c(C(=O)N3CCC(C(=O)NC4CCCCCC4)CC3)cc3ccsc32)c1, the RP-LC retention time was 1070 s.

Cc1cc(NC(=O)Nc2cccc3ccccc23)no1 gave an RP-LC retention time of 896 s.

Compound CCn1cc(-c2ccc(Cl)cc2)cc1C(=O)N(C)C has an RP-LC retention time of 957 s.

Work on O=C(NCCCOc1cccc2cccnc12)c1c(F)cccc1F yielded an RP-LC retention time of 574 s.

Compound CCCNc1cc(N2CCC(CCC(=O)N(C)Cc3ccccc3)CC2)ncn1 has an RP-LC retention time of 702 s.

In the case of O=C(c1cccc(Cl)c1)N1CCN(S(=O)(=O)c2cc3c4c(c2)CCC(=O)N4CCC3)CC1, the RP-LC retention time is reported as 843 s.

Work on COc1ccccc1CCC(=O)N1CCC2(CC1)NCc1ccccc1-n1ccnc12 yielded an RP-LC retention time of 623 s.

Work on CN1CCCn2cc(S(=O)(=O)NCc3ccc(F)cc3Cl)cc2C1=O yielded an RP-LC retention time of 707 s.

Work on Cc1ccc(NC(=O)Cn2nc(N3CCSCC3)c3ccccc3c2=O)c(C)c1 yielded an RP-LC retention time of 940 s.

Work on CC(=O)Nc1ccc(S(=O)(=O)N2CCCC2c2nc(-c3ccc(F)cc3)no2)cc1Cl (centres undefined) yielded an RP-LC retention time of 990 s.

In the case of COc1ccc2nc(NC3=NCN(Cc4ccccc4)CN3)nc(C)c2c1, the RP-LC retention time is reported as 746 s.

Cc1ccccc1Cn1ccnc1C(N)=O showed an RP-LC retention time of 695 s.

O=C(NCc1csc(-c2cccs2)n1)C1CCN(C(=O)c2ccc(F)c(F)c2)CC1 showed an RP-LC retention time of 770 s.

Work on CCN1CCN(CCCNC(=O)CN2CCSc3ccccc32)CC1 yielded an RP-LC retention time of 580 s.

Cc1ccc(C(=O)N2CCC3(CC2)N(C)C(=O)CS3(=O)=O)s1 gave an RP-LC retention time of 614 s.

CN1C(=O)C2CCCCN2c2ccc(C(=O)NCc3ccc4c(c3)OCO4)cc21 (centres undefined) gave an RP-LC retention time of 563 s.

For CCc1ccc(CN(CC(=O)N2CCNCC2)C(=O)c2sccc2C)cc1, the RP-LC retention time was 671 s.

Work on CCc1noc(NC(C)=O)c1-c1ccc(C)c(S(=O)(=O)N2CCN(c3ccc(OC)cc3)CC2)c1 yielded an RP-LC retention time of 919 s.

Work on CCc1nc(-c2csc(S(=O)(=O)N3CCCC(C(=O)Nc4ccc(C)c(C)c4)C3)c2)no1 (centres undefined) yielded an RP-LC retention time of 1110 s.

CCn1c(=O)c2cc(C(=O)NCc3ccc(N4CCC(C)CC4)cc3)nn2c2ccccc21 gave an RP-LC retention time of 688 s.

Nc1c(C(=O)NCc2ccc3c(c2)OCO3)nsc1C(=O)N1CCN(c2ccccn2)CC1 gave an RP-LC retention time of 663 s.

With Cc1cc(C)cc(NC(=O)C2CCN(C(=O)c3ncn4c3COC(c3ccccc3)C4)CC2)c1 (centres undefined) the RP-LC retention time was 856 s.

With CN1C(=O)CCc2cc(NS(=O)(=O)c3cccc4nsnc34)ccc21 the RP-LC retention time was 716 s.

Compound CSc1ccc(-c2nc3cnccn3c2Nc2cccc(C(=O)O)c2)cc1 has an RP-LC retention time of 744 s.

For CC(CCc1ccccc1)NC(=O)Cn1cccc1-c1nc(-c2ccc3c(c2)OCO3)no1 (centres undefined), the RP-LC retention time was 1090 s.

Cc1ccc(CNC(=O)c2cc3c(s2)CCN(C(=O)c2ccc(F)cc2)C3)o1 gave an RP-LC retention time of 847 s.

Compound Cc1nn(-c2ccc(N3CCCCC3)nn2)c(C)c1CCC(=O)N1CCN(c2ccccn2)CC1 has an RP-LC retention time of 594 s.

For CC(=O)Nc1ccc2c(c1)CN(C(=O)c1cccc(Cl)c1)C(C(=O)N1CCCC1)C2 (centres undefined), the RP-LC retention time was 690 s.

Work on O=c1cc[nH]c2c(Cl)cccc12 yielded an RP-LC retention time of 676 s.

In the case of COc1ccc(C2(C(N)=O)CC2)cc1, the RP-LC retention time is reported as 682 s.

Compound CCc1ccc(-c2nc(-c3ccc4nnc(C)n4c3)no2)cc1 has an RP-LC retention time of 1080 s.

COc1cccc(N2CCN(C(=O)CN3CCN(Cc4ccc(C)cc4)C(=O)C3=O)CC2)c1 gave an RP-LC retention time of 772 s.

Cc1nn(CC(=O)NCCCN2CCOCC2)c(=O)c2c(-n3cccc3)n(-c3ccc(F)cc3)nc12 showed an RP-LC retention time of 665 s.

CCS(=O)(=O)N1CCCc2cc(C(=O)NC3CCCCC3)ccc21 gave an RP-LC retention time of 656 s.

With Cc1ccc(NC(=O)CN2CCc3ccccc3C2C(=O)N2CCCCC2)cc1C (centres undefined) the RP-LC retention time was 900 s.

With O=C(c1cc(-c2ccncc2)n[nH]1)N1CCN(C(=O)c2ccc(Br)o2)CC1 the RP-LC retention time was 590 s.

For CCC(=O)N1CCN(c2nc3c(s2)CC(C(=O)NCC(C)C)CC3)CC1 (centres undefined), the RP-LC retention time was 534 s.

Compound Cc1oc(-c2[nH]ncc2C(=O)N2CCCC2)cc1S(=O)(=O)NCCCc1ccccc1 has an RP-LC retention time of 799 s.

For Cc1ccc(Cl)cc1NC(=O)N1CC=C(c2cn(C)c3ncccc23)CC1, the RP-LC retention time was 773 s.

Compound CCCS(=O)(=O)N1CCO[C@@H](COC)[C@@H]1c1ccccc1 has an RP-LC retention time of 850 s.

With CC(NC(=O)CCCn1c(=O)c2cccn2c2ccc(Br)cc21)C(=O)N1CCCCC1 (centres undefined) the RP-LC retention time was 832 s.
